Assay results from US7541368B2, “Pyrazoles as inhibitors of tumor necrosis factor” (Aventis Pharmaceuticals Inc., priority 2003, dated 2009).

tested on: TNF-alpha release in THP-1 cells; assay: LPS-induced TNF-alpha release in THP-1 cells; type: cell-based; conditions: Homo sapiens, THP-1, LPS-stimulated THP-1 cells; read-out: 50% inhibition in the LPS-induced TNF-alpha release in THP-1 cells assay at concentrations within the range
Experimental: The effects of compounds on TNF-alpha production by lipopolysaccharide (LPS)-stimulated […] monocytes were examined as follows.
Undifferentiated THP-1 cells were maintained in RPMI 1640 with Glutamax I containing β-mercaptoethananol (50 μM) and foetal calf serum (FCS-10%) at densities of about 1×10^6 cells per ml. For incubations without and with test reagents, cells were seeded at the indicated densities under serum-deprived (1% FCS) conditions. Compounds were dissolved in dimethylsulfoxide (DMSO-100%) and incubated with the cells to give a fmal DMSO concentration of 0.3%. Control and untreated cell samples were incubated with DMSO (0.3%).
THP-1 cells (1×10 ^6 cells/ml, total volume 150 μl) in culture medium were incubated for 1 hour (5% CO2, 37° C.) with fresh medium containing compounds or vehicle (0.1-0.3% dimethylsulfoxide). LPS (20 μg/ml) was then added to the cells and the incubation continued for a fuirther 18 hours. Cell supernatants were removed into 96 well plates for storage at −20° C.
TNF-alpha concentrations in cell supernatants were quantified by sandwich ELISA. Briefly, ELISA plates were coated overnight with 2 μg/ml of mouse anti-human TNF-alpha antibody in bicarbonate buffer (pH 9.9). After washing the wells with wash buffer (0.05% (v/v) Tween in PBS)and blocking unoccupied sites (1% BSA in wash buffer), monocyte supernatant samples or human recombinant TNF-alpha standards were added into the corresponding wells of the ELISA plate at 1:10 dilution. Biotinylated rabbit polyclonal anti-human TNF-alpha antibody (3 μg/ml) was used as the second antibody and streptavidin-horseradish peroxidase was used as the detection antibody. The peroxidase substrate is 3,3′,5,5′-tetramethylbenzidine (TMB) in the presence of hydrogen peroxide.
TNFα concentrations in supernatants from control and LPS-stimulated monocyte incubations were calculated by interpolation from a standard (log/log) curve (0.125-16 ng/ml) fitted by Excel Fit using the Activity Base software. Compounds were tested within the concentration range of 1×10^−9M to 1×10^−6M.

IC50, 10 to 500 nM:
COc1ccccc1CCC(=O)N1CCC(Cc2cccc(NC(=O)Nc3cc(C(C)(C)C)nn3-c3ccc(C)cc3)c2)CC1 [Compound A82, 1-(5-tert-Butyl-2-p-tolyl-2H-pyrazol-3-yl)-3-(3-{1-[3-(2-methoxy-phenyl)-propionyl]-piperidin-4-ylmethyl}-phenyl)-urea]
Cc1ccc(-n2nc(C(C)(C)C)cc2NC(=O)Nc2cccc(CC3CCN(C(=O)CCc4cccs4)CC3)c2)cc1 [Compound A83, 1-(5-tert-Butyl-2-p-tolyl-2H-pyrazol-3-yl)-3-{3-[1-(3-thiophen-2-yl-propionyl)-piperidin-4-ylmethyl]-phenyl}-urea]
Cc1ccc(-n2nc(C(C)(C)C)cc2NC(=O)Nc2cccc(CC3CCN(C(=O)c4ccoc4)CC3)c2)cc1 [Compound A92, 1-(5-tert-Butyl-2-p-tolyl-2H-pyrazol-3-yl)-3-{3-[1-(furan-3-carbonyl)-piperidin-4-ylmethyl]-phenyl}-urea]
Cc1ccc(-n2nc(C(C)(C)C)cc2NC(=O)Nc2cccc(CC3CCN(C(=O)c4occc4C)CC3)c2)cc1 [Compound A95, 1-(5-tert-Butyl-2-p-tolyl-2H-pyrazol-3-yl)-3-{3-[1-(3-methyl-furan-2-carbonyl)-piperidin-4-ylmethyl]-phenyl}-urea]
Cc1ccc(-n2nc(C(C)(C)C)cc2NC(=O)Nc2cccc(CC3CCN(C(=O)c4ccsc4)CC3)c2)cc1 [Compound A99, 1-(5-tert-Butyl-2-p-tolyl-2H-pyrazol-3-yl)-3-{3-[1-(thiophene-3-carbonyl)-piperidin-4-ylmethyl]-phenyl}-urea]
Cc1ccc(-n2nc(C(C)(C)C)cc2NC(=O)Nc2cccc(CC3CCN(C(=O)C4=Cc5sccc5CC4)CC3)c2)cc1 [Compound A102, 1-(5-tert-Butyl-2-p-tolyl-2H-pyrazol-3-yl)-3-{3-[1-(4,5-dihydro-benzo[b]thiophene-6-carbonyl)-piperidin-4-ylmethyl]-phenyl}-urea]
Cc1ccc(-n2nc(C(C)(C)C)cc2NC(=O)Nc2cccc(CC3CCN(C(=O)c4ccc(-c5cnco5)cc4)CC3)c2)cc1 [Compound A106, 1-(5-tert-Butyl-2-p-tolyl-2H-pyrazol-3-yl)-3-{3-[1-(4-oxazol-5-yl-benzoyl)-piperidin-4-ylmethyl]-phenyl}-urea]
Cc1ccc(-n2nc(C(C)(C)C)cc2NC(=O)Nc2cccc(CC3CCN(C(=O)c4ccc(OC(F)F)cc4)CC3)c2)cc1 [Compound A111, 1-(5-tert-Butyl-2-p-tolyl-2H-pyrazol-3-yl)-3-{3-[1-(4-difluoromethoxy-benzoyl)-piperidin-4-ylmethyl]-phenyl}-urea]
Cc1ccc(-n2nc(C(C)(C)C)cc2NC(=O)Nc2cccc(CC3CCN(C(=O)c4ccc(N)c(OC(F)(F)F)c4)CC3)c2)cc1 [Compound A114, 1-{3-[1-(4-Amino-3-trifluoromethoxy-benzoyl)-piperidin-4-ylmethyl]-phenyl}-3-(5-tert-butyl-2-p-tolyl-2H-pyrazol-3-yl)-urea]
Cc1ccc(-n2nc(C(C)(C)C)cc2NC(=O)Nc2cccc(CC3CCN(C(=O)c4ccc(CO)cc4)CC3)c2)cc1 [Compound A118, 1-(5-tert-Butyl-2-p-tolyl-2H-pyrazol-3-yl)-3-{3-[1-(4-hydroxymethyl-benzoyl)-piperidin-4-ylmethyl]-phenyl}-urea]
COc1ccc(OCC(=O)N2CCC(Cc3cccc(NC(=O)Nc4cc(C(C)(C)C)nn4-c4ccc(C)cc4)c3)CC2)cc1 [Compound A121, 1-(5-tert-Butyl-2-p-tolyl-2H-pyrazol-3-yl)-3-(3-{1-[2-(4-methoxy-phenoxy)-acetyl]-piperidin-4-ylmethyl}-phenyl)-urea]
COc1ccc(CC(=O)N2CCC(Cc3cccc(NC(=O)Nc4cc(C(C)(C)C)nn4-c4ccc(C)cc4)c3)CC2)cc1 [Compound A122, 1-(5-tert-Butyl-2-p-tolyl-2H-pyrazol-3-yl)-3-(3-{1-[2-(4-methoxy-phenyl)-acetyl]-piperidin-4-ylmethyl}-phenyl)-urea]
Cc1ccc(-n2nc(C(C)(C)C)cc2NC(=O)Nc2cccc(CC3CCN(C(=O)c4cnccc4C(F)(F)F)CC3)c2)cc1 [Compound A126, 1-(5-tert-Butyl-2-p-tolyl-2H-pyrazol-3-yl)-3-{3-[1-(4-trifluoromethyl-pyridine-3-carbonyl)-piperidin-4-ylmethyl]-phenyl}-urea]
Cc1ccc(-n2nc(C(C)(C)C)cc2NC(=O)Nc2cccc(CC3CCN(C(=O)c4ccc(Cl)s4)CC3)c2)cc1 [Compound A131, 1-(5-tert-Butyl-2-p-tolyl-2H-pyrazol-3-yl)-3-{3-[1-(5-chloro-thiophene-2-carbonyl)-piperidin-4-ylmethyl]-phenyl}-urea]
COc1ccc(OCC(F)(F)F)c(C(=O)N2CCC(Cc3cccc(NC(=O)Nc4cc(C(C)(C)C)nn4-c4ccc(C)cc4)c3)CC2)c1 [Compound A132, 1-(5-tert-Butyl-2-p-tolyl-2H-pyrazol-3-yl)-3-(3-{1-[5-methoxy-2-(2,2,2-trifluoro-ethoxy)-benzoyl]-piperidin-4-ylmethyl}-phenyl)-urea]
Cc1ccc(-n2nc(C(C)(C)C)cc2NC(=O)Nc2cccc(CC3CCN(C(=O)c4cnc(C)cn4)CC3)c2)cc1 [Compound A140, 1-(5-tert-Butyl-2-p-tolyl-2H-pyrazol-3-yl)-3-{3-[1-(5-methyl-pyrazine-2-carbonyl)-piperidin-4-ylmethyl]-phenyl}-urea]
Cc1ccc(-n2nc(C(C)(C)C)cc2NC(=O)Nc2cccc(CC3CCN(C(=O)c4ccc(N)nc4)CC3)c2)cc1 [Compound A144, 1-{3-[1-(6-Amino-pyridine-3-carbonyl)-piperidin-4-ylmethyl]-phenyl}-3-(5-tert-butyl-2-p-tolyl-2H-pyrazol-3-yl)-urea]
Cc1ccc(-n2nc(C(C)(C)C)cc2NC(=O)Nc2cccc(CC3CCN(C(=O)c4cccc(C)n4)CC3)c2)cc1 [Compound A146, 1-(5-tert-Butyl-2-p-tolyl-2H-pyrazol-3-yl)-3-{3-[1-(6-methyl-pyridine-2-carbonyl)-piperidin-4-ylmethyl]-phenyl}-urea]
CC(=O)OCc1ccc(C(=O)N2CCC(Cc3cccc(NC(=O)Nc4cc(C(C)(C)C)nn4-c4ccc(C)cc4)c3)CC2)cc1 [Compound A148, Acetic acid 4-(4-{3-[3-(5-tert-butyl-2-p-tolyl-2H-pyrazol-3-yl)-ureido]-benzyl}-piperidine-1-carbonyl)-benzyl ester]
Cc1ccc(-n2nc(C(C)(C)C)cc2NC(=O)Nc2cccc(CC3CCN(C(=O)c4ccc5ncsc5c4)CC3)c2)cc1 [Compound A150, 1-{3-[1-(Benzothiazole-6-carbonyl)-piperidin-4-ylmethyl]-phenyl}-3-(5-tert-butyl-2-p-tolyl-2H-pyrazol-3-yl)-urea]
Cc1ccc(-n2nc(C(C)(C)C)cc2NC(=O)Nc2cccc(CC3CCN(C(=O)c4coc5c4C(=O)CCC5)CC3)c2)cc1 [Compound A154, 1-(5-tert-Butyl-2-p-tolyl-2H-pyrazol-3-yl)-3-{3-[1-(4-oxo-4,5,6,7-tetrahydro-benzofuran-3-carbonyl)-piperidin-4-ylmethyl]-phenyl}-urea]
Cc1ccc(-n2nc(C(C)(C)C)cc2NC(=O)Nc2cccc(CC3CCN(C(=O)c4n[nH]c5ccccc45)CC3)c2)cc1 [Compound A167, 1-(5-tert-Butyl-2-p-tolyl-2H-pyrazol-3-yl)-3-{3-[1-(1H-indazole-3-carbonyl)-piperidin-4-ylmethyl]-phenyl}-urea]
Cc1ccc(-n2nc(C(C)(C)C)cc2NC(=O)Nc2cccc(CC3CCN(C(=O)Cc4c[nH]c5ccccc45)CC3)c2)cc1 [Compound A168, 1-(5-tert-Butyl-2-p-tolyl-2H-pyrazol-3-yl)-3-{3-[1-(2-1H-indol-3-yl-acetyl)-piperidin-4-ylmethyl]-phenyl}-urea]
Cc1ccc(-n2nc(C(C)(C)C)cc2NC(=O)Nc2cccc(CC3CCN(C(=O)Cc4ccccc4C)CC3)c2)cc1 [Compound A182, 1-(5-tert-Butyl-2-p-tolyl-2H-pyrazol-3-yl)-3-{3-[1-(2-o-tolyl-acetyl)-piperidin-4-ylmethyl]-phenyl}-urea]
Cc1ccc(-n2nc(C(C)(C)C)cc2NC(=O)Nc2cccc(CC3CCN(C(=O)c4ccc5ccccc5n4)CC3)c2)cc1 [Compound A184, 1-(5-tert-Butyl-2-p-tolyl-2H-pyrazol-3-yl)-3-{3-[1-(quinoline-2-carbonyl)-piperidin-4-ylmethyl]-phenyl}-urea]
Cc1ccc(-n2nc(C(C)(C)C)cc2NC(=O)Nc2cccc(CC3CCN(C(=O)c4ccnc5ccccc45)CC3)c2)cc1 [Compound A186, 1-(5-tert-Butyl-2-p-tolyl-2H-pyrazol-3-yl)-3-{3-[1-(quinoline-4-carbonyl)-piperidin-4-ylmethyl]-phenyl}-urea]
